Test results as given in patent publication US10428014B2, “Base generator, base-reactive composition containing said base generator, and base generation method” (FUJIFILM Wako Pure Chemical Corporation, priority 2013, dated 2019).

Assay: Heat resistance test (TG-DTA, initiation temperature of 5% weight decrease)
Assay type: physicochemical
Conditions: 10 mg, 30° C. to 500° C., 10° C./min

Point of comparison: `CC(C(=O)O)c1cccc(C(=O)c2ccccc2)c1` (stereo not shown) [formula (101), guanidium 2-(3-benzoylphenyl)propionate, reference compound], Decomposition initiation temperature 161 °C. Against it:
- 1,2-diisopropyl-4,4,5,5-tetramethylbiguanidium N-phthaloylglycine [formula (8)] — higher, 206 °C
- 1,2-dicyclohexyl-4,4,5,5-tetramethylbiguanidium 2-(9-oxoxanthene-2-yl)propionate [formula (4)] — higher, 199 °C
- 1,2-dicyclohexyl-4,4,5,5-tetramethylbiguanidium 8(7H)-ethylidene-4-methoxy-5,6-dihydronaphthalene-1-carboxylate [formula (6)] — higher, 205 °C
- 1,2-diisopropyl-4,4,5,5-tetramethylbiguanidium 8(7H)-ethylidene-4-methoxy-5,6-dihydronaphthalene-1-carboxylate [formula (5)] — higher, 204 °C
- 1,2-diisopropyl-4,4,5,5-tetramethylbiguanidium 2-(9-oxoxanthene-2-yl)propionate [formula (7)] — higher, 200 °C

Assay: Exposure curing test using bisphenol A-type diglycidyl ether
Conditions: 10 mg compound, 100 mg jER 828, 50 mg KarenzMT PE1

With `CC(C(=O)O)c1cccc(C(=O)c2ccccc2)c1` (stereo not shown) [formula (101), guanidium 2-(3-benzoylphenyl)propionate, reference compound] the “Dissolution into the mixed solution of the bisphenol A-type diglycidyl ether oligomer and pentaerythritol tetrakis(3-mercaptobutyrate)” value was “did not dissolve”.
